Like-named read-outs stand apart in the source and are kept apart here.

The target in series [1] is T1, Pseudomonas fluorescens aryl esterase (PFE) variant Leu29Pro (parent SEQ ID NO:3) (Pseudomonas fluorescens, UniProt P22862, L30P).
T1 sequence (P22862 1-272 L30P): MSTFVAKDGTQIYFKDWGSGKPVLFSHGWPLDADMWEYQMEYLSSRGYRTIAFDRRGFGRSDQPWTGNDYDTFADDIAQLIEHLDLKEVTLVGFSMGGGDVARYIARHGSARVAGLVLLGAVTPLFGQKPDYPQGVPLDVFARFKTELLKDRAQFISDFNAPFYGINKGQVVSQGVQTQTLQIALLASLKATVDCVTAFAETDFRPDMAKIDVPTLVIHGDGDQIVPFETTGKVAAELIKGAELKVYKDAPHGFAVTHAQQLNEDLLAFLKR
The method, then: (§1) Activity assays were performed in quadruplicates on 96-well microtiter plates with a reaction volume of 100 μl (90 μl assay solution to 10 μl enzyme in 5 mM BES pH 7.2). The path-length for light through the well was 0.29 cm.
(§2) The monochlorodimedon (MCD) assay (Hager et al., 1966, J. Biol. Chem., 241:1769-1777) was used to detect peracid formation. Each reaction contained MCD (0.18 mM), H2O2 (90 mM), NaBr (90 mM) in acetate buffer (1 M, pH 5.5) at 25° C. The reaction was followed spectrophotometrically at 290 nm in UV-transparent microtiter plates (ε=19.9×10^3 M^−1 cm^−1).
(§3) An estimate of kinetic parameters was also obtained for hydrogen peroxide in wild-type and Leu29Pro. The hydrogen peroxide in wild-type was 5, 10, 20, 50, 100, and 200 mM; for Leu29Pro, the concentrations were 5, 10, 20, 35, 50, 121, 152, and 200 mM.

The target in series [2] is T2, Pseudomonas fluorescens aryl esterase (PFE), wild-type, SEQ ID NO:3 (Pseudomonas fluorescens, UniProt P22862).
T2 sequence (P22862 1-272): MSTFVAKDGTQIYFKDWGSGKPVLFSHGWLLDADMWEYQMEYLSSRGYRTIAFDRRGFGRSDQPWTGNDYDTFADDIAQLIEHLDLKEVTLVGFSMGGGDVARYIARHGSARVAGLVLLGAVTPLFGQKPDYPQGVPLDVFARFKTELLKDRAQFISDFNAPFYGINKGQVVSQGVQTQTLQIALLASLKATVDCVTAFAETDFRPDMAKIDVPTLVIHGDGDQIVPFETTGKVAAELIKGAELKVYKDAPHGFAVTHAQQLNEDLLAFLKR
On the procedure: as §1, §2, §3

Series [3] addresses T1, Pseudomonas fluorescens aryl esterase (PFE) variant Leu29Pro (parent SEQ ID NO:3). Kind of series: Kinetics of p-nitrophenyl acetate hydrolysis, Leu29Pro PFE. Set-up: expressed as in Cheeseman et al. 2004. In kind it is biochemical. On the procedure: (§4) The p-nitrophenyl acetate (pNPAc) assay contained pNPAc (0.3 mM) and 8% acetonitrile as co-solvent in BES buffer (5 mM, pH 7.2). The reaction was monitored spectrophotometrically at 404 nm (ε=11.4·10 ^3 M^−1 cm^−1). A pH-indicator assay was used to assay substrates without inherent light absorbing properties (Janes et al., 1998, Chem. Eur. J. 4:2324-2331). The reactions were carried out in BES buffer (5 mM, pH 7.2) containing p-nitrophenol. As hydrolysis progresses, protons add to the p-nitrophenolate and the course of reaction can be monitored as a decrease in absorbance at 404 nm (ε=16.5·10^3 M^−1 cm^−1). This provides a good estimate of reaction rates, but is limited to substrates containing only one possible acid-functionality, as several would interfere with the pH indicator.
(§5) Kinetic parameters for hydrolysis of pNPAc in wild-type and Leu29Pro were carried out with pNPAc at 0.1, 0.2, 0.5, 1.0, 2.0, 4.0, and 10 mM under otherwise identical conditions as for the pNPAc-assay. Solubility problems limited higher substrate concentrations than 10 mM. Data points were fitted by non-linear regression using OriginPro 7.5 SR1 v7.5776 (OriginLab Corporation, Northampton, Mass.) with a hyperbola function of basic equation y=P1*x/(P2+x), where x is the substrate concentration (mM), P1 corresponds to Vmax (μmol min^−1 mg^−1 or U/mg), and P2 corresponds to KM (mM). R^2-values for were 0.992 and 0.997 for wild-type and Leu29Pro, respectively.

Substrate in series [4]: CC(=O)Oc1ccc([N+](=O)[O-])cc1
Kind of series: Kinetics of p-nitrophenyl acetate hydrolysis, wild-type PFE. In kind it is biochemical, Pseudomonas fluorescens. The following applies: other: hydrolysis of pNPAc 0.1-10 mM, 5 mM BES pH 7.2, 8% acetonitrile. On the procedure:
as §4, §5

Substrate in series [5]: CC(=O)Oc1ccc([N+](=O)[O-])cc1
Kind of series: Kinetics of p-nitrophenyl acetate hydrolysis, Leu29Pro PFE. Type of series: biochemical, Pseudomonas fluorescens. Conditions: other: hydrolysis of pNPAc 0.1-10 mM, 5 mM BES pH 7.2, 8% acetonitrile. The method, then:
as §4, §5

Setting [6] is: perhydrolysis, H2O2 5-200 mM, 1 M acetate pH 5.5, 25° C., Leu29Pro.
[7] abbreviates: perhydrolysis, H2O2 5-200 mM, 1 M acetate pH 5.5, 25° C.

In general, Km refers to the substrate concentration at which the rate is half of its maximum. As to `OO` [H2O2, hydrogen peroxide], the “fold increase in Vmax for perhydrolysis” value in series [1] (Leu29Pro vs wild-type) came to 50 fold. The “fold increase in catalytic efficiency (Vmax/KM) for perhydrolysis of acetic acid” value in series [1] (Leu29Pro vs wild-type) is on record as 14 fold. For the same molecule, the “increase in Km for hydrogen peroxide” value in series [1] (Leu29Pro vs wild-type) is “three-fold”. Moreover, the Vmax/KM in series [1] (perhydrolysis of acetic acid, H2O2, Leu29Pro) is 180 U mg^−1 M^−1; in series [2] (perhydrolysis of acetic acid, H2O2), 13 U mg^−1 M^−1. The Km in series [1] (setting [6]) amounted to 58 mM; in series [2] (setting [7]) it was 17 mM. For the same molecule, the Vmax in series [1] (setting [6]) is recorded as 11 ± 1 U mg^−1; in series [1] (perhydrolysis, H2O2 5-200 mM, 1 M acetate pH 5.5, 25° C., Leu29Pro, listed as hydrogen peroxide), 11 U mg^−1; in series [2] (setting [7]), 0.22 ± 0.02 U mg^−1; in series [2] (perhydrolysis, H2O2 5-200 mM, 1 M acetate pH 5.5, 25° C., listed as hydrogen peroxide), 0.22 U mg^−1.

On to `CC(=O)Oc1ccc([N+](=O)[O-])cc1` [pNPAc, p-nitrophenyl acetate], for which, in series [3] (Leu29Pro vs wild-type), the “fold decrease in Vmax for hydrolysis of pNPAc” value amounted to 50 fold and the “increase in KM for pNPAc” value is given as “three-fold”. Also, the “fold change in catalytic efficiency (Vmax/KM) for hydrolysis of pNPAc” value in series [3] (Leu29Pro vs wild-type (decrease)) was 165 fold.

B1: Pseudomonas fluorescens aryl esterase (PFE), wild-type, SEQ ID NO:3 (Pseudomonas fluorescens) (protein)
chain: MSTFVAKDGTQIYFKDWGSGKPVLFSHGWLLDADMWEYQMEYLSSRGYRTIAFDRRGFGRSDQPWTGNDYDTFADDIAQLIEHLDLKEVTLVGFSMGGGDVARYIARHGSARVAGLVLLGAVTPLFGQKPDYPQGVPLDVFARFKTELLKDRAQFISDFNAPFYGINKGQVVSQGVQTQTLQIALLASLKATVDCVTAFAETDFRPDMAKIDVPTLVIHGDGDQIVPFETTGKVAAELIKGAELKVYKDAPHGFAVTHAQQLNEDLLAFLKR
notes: expressed as in Cheeseman et al. 2004
Regarding B1, in series [4], the Km was determined as 2.8 ± 0.4 mM, the Vmax is 143 µmol/min/mg and the Vmax/Km was 51000 µL/min/mg.

B2: Pseudomonas fluorescens aryl esterase (PFE) variant Leu29Pro (parent SEQ ID NO:3) (Pseudomonas fluorescens; L30P) (protein)
chain: MSTFVAKDGTQIYFKDWGSGKPVLFSHGWPLDADMWEYQMEYLSSRGYRTIAFDRRGFGRSDQPWTGNDYDTFADDIAQLIEHLDLKEVTLVGFSMGGGDVARYIARHGSARVAGLVLLGAVTPLFGQKPDYPQGVPLDVFARFKTELLKDRAQFISDFNAPFYGINKGQVVSQGVQTQTLQIALLASLKATVDCVTAFAETDFRPDMAKIDVPTLVIHGDGDQIVPFETTGKVAAELIKGAELKVYKDAPHGFAVTHAQQLNEDLLAFLKR
notes: as for B1
For the molecule B2, in series [5], the Km is recorded as 8.9 ± 1.1 mM, the Vmax came out at 2.8 µmol/min/mg and the Vmax/Km came out at 310 µL/min/mg.

The record behind these values is US7384787B2, “Increasing perhydrolase activity in esterases and/or lipases” (Regents of the University of Minnesota, priority 2005, dated 2008).
